Laboratory results as given in patent US20260166039A1 (SCHRÖDINGER, INC., priority 2022, published 2026).

Key:
[1] = molecular target: T1, Wee1 kinase domain (Homo sapiens, UniProt P30291); assay: Wee1 Kinase Biochemical Assay (ADP-Glo); conditions: Wee1 kinase domain, 15 uM ATP, ADP-Glo
T1 construct: Wee1 kinase domain was purchased from Carna (catalog #05-177); purchased Carna 05-177
Summary of the method: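 The reaction mix held 1 nM Wee1 kinase domain, 15 uM ATP and 2 ng/mL Poly(Lys,Tyr 4:1) substrate and was left for 4 hours at 25 °C. ADP production was then measured with ADP-Glo, and percent inhibition was derived relative to DMSO and a saturating Wee1 inhibitor.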

[2] = test system: phosphorylation of Cdc2 Y15 (Wee1 substrate) in A427 cells; assay: Phosphorylated Cdc2 MSD Electrochemiluminescence Assay; type: cell-based; conditions: Homo sapiens, A-427, pCDC2 MSD
Procedure: Phosphorylated Cdc2 MSD Electrochemiluminescence Assay
The effect of Wee1 inhibitors on cellular phosphorylation of the Wee1 substrate Cdc2 was determined using the following protocol:
A total of 40,000 A427 cells in 100 uL culture medium (1640 medium+10% Fetal bovine serum+1% Penicillin-Streptomycin) were plated in 96-well cell culture plates. 3-fold serial dilutions of test compounds were prepared in completed PBS at 25× final concentration. After 20 hours, the plates were removed and 4 μL of each were added to the cells and incubated with shaking for 30 minutes at 37° C., 5% CO2. Each concentration was tested in duplicate. After a total 6 hours incubation, plates were removed and centrifuged for 5 minutes and 100 uL of supernatant from each well was removed. Cells were washed with 200 μL PBS and lysed with 50 μL MSD lysis buffer (Meso Scale Diagnostics) supplied with 1× complete ULTRA cocktail inhibitor (Roche).
To detect phosphorylation of Cdc2 Y15, 30 μL of capture antibody solution (CST catalog #9116S 1:200) was added into each well of the MSD plate (MSD catalog #L15XB-6), sealed and incubated at 4° C. with shaking (450 rpm) overnight. The antibody solution was removed, wells blocked with BSA solution and plates washed three times with PBST, followed by addition of 30 μl of cell lysate per well. After 2 hours of incubation, plates were washed three times with PBST. 30 μL of 1× detection antibody solution (CST catalog #4539S 1:200) was then added to each well and incubated for 1 hour. Plates were washed three times with PBST and 30 μL of 1× secondary antibody solution (MSD, catalog #:R32AB-1, 1:5000) was added to each well and incubated for 1 hour. Plates were washed three times with PBST and 150 μL of 1× Read Buffer T (MSD, catalog #R92TC-1) was added to each well of the MSD plate. The electrochemiluminescence signal was measured on a MESO SECTOR S600 plate reader. The percentage of remaining phosphorylated Cdc2 signal was calculated following the equation below.
[formula] • HC (high control): Cells treated with DMSO • Cpds: Cells treated with test compounds • LC (low control): Cells treated with positive control Wee1 inhibitor

T1 sequence (P30291 299-569 limits assumed): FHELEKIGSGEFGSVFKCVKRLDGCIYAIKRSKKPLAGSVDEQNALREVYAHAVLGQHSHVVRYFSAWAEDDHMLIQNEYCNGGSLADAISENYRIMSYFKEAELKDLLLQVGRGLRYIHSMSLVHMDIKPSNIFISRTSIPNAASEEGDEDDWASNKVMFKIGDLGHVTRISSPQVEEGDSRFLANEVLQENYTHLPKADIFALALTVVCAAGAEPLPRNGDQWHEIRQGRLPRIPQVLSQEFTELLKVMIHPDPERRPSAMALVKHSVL

| Structure (SMILES) | IC50 [1] | IC50 [2] |
| --- | --- | --- |
| CNCc1cccc(N2c3nc(Nc4ccc([C@@H]5CCC(=O)N5C)nc4)ncc3[C@@]3(C)COC(C)(C)C[C@@H]23)n1 (single isomer, unassigned) [Example 96] | < 10 nM | 100 to 1000 nM |
| CN1CCC(n2cc(Nc3ncc4c(n3)N(c3cccc(N=S(C)(C)=O)n3)[C@H]3CC(C)(C)OC[C@@]43C)cn2)CC1 (single isomer, unassigned) [Example 101] | 100 to 1000 nM | 1000 to 10000 nM |
| CN1CCC(n2cc(Nc3ncc4c(n3)N(c3cccc(N=S(C)(C)=O)n3)[C@@H]3CC(C)(C)OC[C@]43C)cn2)CC1 (single isomer, unassigned) [Example 102] | < 10 nM | 100 to 1000 nM |
| Cc1cc(Nc2ncc3c(n2)N(c2cccc(N=S(C)(C)=O)n2)[C@@H]2CC(C)(C)OC[C@]32C)ccc1C1CCN(C)CC1 (single isomer, unassigned) [Example 104] | < 10 nM | < 100 nM |
| Cc1cc(Nc2ncc3c(n2)N(c2cccc(N=S(C)(C)=O)n2)[C@@H]2CC(C)(C)OC[C@]32C)ccc1N1CCN(C)CC1 (single isomer, unassigned) [Example 106] | < 10 nM | < 100 nM |
| CN1Cc2cc(Nc3ncc4c(n3)N(c3cccc(N=S(C)(C)=O)n3)[C@@H]3CC(C)(C)OC[C@]43C)ccc2C2(CC2)C1 (single isomer, unassigned) [Example 107] | < 10 nM | < 100 nM |
| CN1CCc2ccc(Nc3ncc4c(n3)N(c3cccc(N=S(C)(C)=O)n3)[C@@H]3CC(C)(C)OC[C@]43C)cc2C1 (single isomer, unassigned) [Example 109] | < 10 nM | < 100 nM |
| CN1CCC(c2ccc(Nc3ncc4c(n3)N(c3cccc(N=S(C)(C)=O)n3)[C@H]3CC(C)(C)OC[C@@]43C)cc2)CC1 (single isomer, unassigned) [Example 112] | < 10 nM | < 100 nM |
| Cc1cc(Nc2ncc3c(n2)N(c2cccc(N=S(C)(C)=O)n2)[C@@H]2CC(C)(C)OC[C@]32C)ccc1[C@@H]1COCCN1 (single isomer, unassigned) [Example 114] | < 10 nM | < 100 nM |
| CNC(=O)c1ccc(Nc2ncc3c(n2)N(c2cccc(N=S(C)(C)=O)n2)[C@@H]2CC(C)(C)OC[C@]32C)cc1 (single isomer, unassigned) [Example 117] | < 10 nM | < 100 nM |
| Cc1cc(Nc2ncc3c(n2)N(c2cccc(N=S(C)(C)=O)n2)[C@@H]2CC(C)(C)OC[C@]32C)ccc1[C@H]1COCCN1 (single isomer, unassigned) [Example 120] | < 10 nM | < 100 nM |
| CN1C[C@H]2C[C@@H]1CN2c1ccc(Nc2ncc3c(n2)N(c2cccc(N=S(C)(C)=O)n2)[C@@H]2CC(C)(C)OC[C@]32C)cc1 (single isomer, unassigned) [Example 122] | < 10 nM | < 100 nM |
| CN1C[C@@H]2C[C@H]1CN2c1ccc(Nc2ncc3c(n2)N(c2cccc(N=S(C)(C)=O)n2)[C@@H]2CC(C)(C)OC[C@]32C)cc1 (single isomer, unassigned) [Example 124] | < 10 nM | < 100 nM |
| CN1CCC[C@H]1c1ccc(Nc2ncc3c(n2)N(c2cccc(N=S(C)(C)=O)n2)[C@@H]2CC(C)(C)OC[C@]32C)cc1 (single isomer, unassigned) [Example 126] | < 10 nM | < 100 nM |
| CN1CCC[C@@H]1c1ccc(Nc2ncc3c(n2)N(c2cccc(N=S(C)(C)=O)n2)[C@@H]2CC(C)(C)OC[C@]32C)cc1 (single isomer, unassigned) [Example 127] | < 10 nM | < 100 nM |
| CN1CC[C@@H](c2ccc(Nc3ncc4c(n3)N(c3cccc(N=S(C)(C)=O)n3)[C@@H]3CC(C)(C)OC[C@]43C)cc2)C1 (single isomer, unassigned) [Example 129] | < 10 nM | < 100 nM |
| CC1(C)C[C@H]2N(c3cccc(N=S(C)(C)=O)n3)c3nc(Nc4ccc([C@@H]5CCNC5)cc4)ncc3[C@@]2(C)CO1 (single isomer, unassigned) [Example 131] | < 10 nM | < 100 nM |
| CN1CC[C@H](c2ccc(Nc3ncc4c(n3)N(c3cccc(N=S(C)(C)=O)n3)[C@@H]3CC(C)(C)OC[C@]43C)cc2)C1 (single isomer, unassigned) [Example 133] | < 10 nM | 100 to 1000 nM |

| Structure (SMILES) | IC50 [1] | IC50 [2] |
| --- | --- | --- |
| CN1Cc2cc(Nc3ncc4c(n3)N(c3cccc(N=S(C)(C)=O)n3)[C@@H]3CC(C)(C)OC[C@]43C)ccc2C(C)(C)C1 (single isomer, unassigned) [Example 135] | < 10 nM | < 100 nM |
| CC1(C)C[C@H]2N(c3cccc(N=S(C)(C)=O)n3)c3nc(Nc4ccc([C@H]5CCNC5)cc4)ncc3[C@@]2(C)CO1 (single isomer, unassigned) [Example 137] | < 10 nM | < 100 nM |
| CN1CCC(c2ccc(Nc3ncc4c(n3)N(c3cccc(N=S(C)(C)=O)n3)[C@@H]3CC(C)(C)OC[C@]43C)cn2)CC1 (single isomer, unassigned) [Example 140] | < 10 nM | < 100 nM |
| CN(C)C(=O)c1ccc(Nc2ncc3c(n2)N(c2cccc(N=S(C)(C)=O)n2)[C@@H]2CC(C)(C)OC[C@]32C)cc1 (single isomer, unassigned) [Example 141] | < 10 nM | < 100 nM |
| Cc1cc(Nc2ncc3c(n2)N(c2cccc(N=S(C)(C)=O)n2)[C@@H]2CC(C)(C)OC[C@]32C)ccc1[C@@H]1CCNC1 (single isomer, unassigned) [Example 143] | < 10 nM | 100 to 1000 nM |
| Cc1cc(Nc2ncc3c(n2)N(c2cccc(N=S(C)(C)=O)n2)[C@@H]2CC(C)(C)OC[C@]32C)ccc1[C@@H]1CCN(C)C1 (single isomer, unassigned) [Example 145] | < 10 nM | < 100 nM |
| Cc1cc(Nc2ncc3c(n2)N(c2cccc(N=S(C)(C)=O)n2)[C@@H]2CC(C)(C)OC[C@]32C)ccc1[C@H]1CCN(C)C1 (single isomer, unassigned) [Example 147] | < 10 nM | < 100 nM |
| Cc1cc(Nc2ncc3c(n2)N(c2cccc(N=S(C)(C)=O)n2)[C@@H]2CC(C)(C)OC[C@]32C)ccc1[C@H]1CCNC1 (single isomer, unassigned) [Example 149] | < 10 nM | 100 to 1000 nM |
| CC1(C)C[C@H]2N(c3cccc(N=S(C)(C)=O)n3)c3nc(Nc4ccc(O[C@H]5CCNC5)cc4)ncc3[C@@]2(C)CO1 (single isomer, unassigned) [Example 153] | < 10 nM | < 100 nM |
| CC1(C)C[C@H]2N(c3cccc(N=S(C)(C)=O)n3)c3nc(Nc4ccc(O[C@@H]5CCNC5)cc4)ncc3[C@@]2(C)CO1 (single isomer, unassigned) [Example 155] | < 10 nM | 100 to 1000 nM |
| CN1CC[C@H](Oc2ccc(Nc3ncc4c(n3)N(c3cccc(N=S(C)(C)=O)n3)[C@@H]3CC(C)(C)OC[C@]43C)cc2)C1 (single isomer, unassigned) [Example 157] | < 10 nM | < 100 nM |
| CN1CC[C@@H](Oc2ccc(Nc3ncc4c(n3)N(c3cccc(N=S(C)(C)=O)n3)[C@@H]3CC(C)(C)OC[C@]43C)cc2)C1 (single isomer, unassigned) [Example 159] | < 10 nM | < 100 nM |
| [2H]C([2H])([2H])N1CCC(c2ccc(Nc3ncc4c(n3)N(c3cccc(N=S(C)(C)=O)n3)[C@@H]3CC(C)(C)OC[C@]43C)cc2)CC1 (single isomer, unassigned) [Example 162] | < 10 nM | < 100 nM |
| CC1(C)C[C@H]2N(c3cccc(N=S(C)(C)=O)n3)c3nc(Nc4ccc(C5CNC5)cc4)ncc3[C@@]2(C)CO1 (single isomer, unassigned) [Example 163] | < 10 nM | < 100 nM |
| CN1CC(c2ccc(Nc3ncc4c(n3)N(c3cccc(N=S(C)(C)=O)n3)[C@@H]3CC(C)(C)OC[C@]43C)cc2)C1 (single isomer, unassigned) [Example 165] | < 10 nM | < 100 nM |
| CN1CC[C@](C)(c2ccc(Nc3ncc4c(n3)N(c3cccc(N=S(C)(C)=O)n3)[C@@H]3CC(C)(C)OC[C@]43C)cc2)C1 (single isomer, unassigned) [Example 168] | < 10 nM | < 100 nM |
| CN1CC[C@@](C)(c2ccc(Nc3ncc4c(n3)N(c3cccc(N=S(C)(C)=O)n3)[C@@H]3CC(C)(C)OC[C@]43C)cc2)C1 (single isomer, unassigned) [Example 169] | < 10 nM | < 100 nM |
